Experimental findings from patent US20190225650A1, “PEPTIDOMIMETIC MACROCYCLES AND USE THEREOF IN REGULATING HIF1ALPHA” (AILERON THERAPEUTICS, INC., priority 2013, published 2019) are described below.

Bridge positions count the residues as written; N and C are the ends. Square brackets hold non-standard residues; d marks the D form. Peptide text beside a SMILES is read from it. R8 = C=CCCCCCC[C@@](C)(N)C(=O)O; S5 = C=CCCC[C@](C)(N)C(=O)O; Nle = CCCC[C@H](N)C(=O)O

In experiment [1] the test system is HRE-bla ME-180 cells. In words: Cell proliferation assay (viability, MTT, 1% FBS). It counts as cell-based, human. Summed up:
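ME-180 cells (2×10^4/well) in Opti-MEM with 1% FBS were pretreated 16 h under normoxia (21% O2), vehicle 0.5% DMSO final. Incubation then continued under normoxia or hypoxia (1% O2); viable cells quantified by MTT-type CellTiter 96 assay.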

Experiment [2] relates to HRE-bla ME-180 cells. Nature of the experiment: Reporter gene assay (HRE-bla ME-180 HIF reporter, GeneBLAzer). It counts as cell-based, human. To be noted: for EC50: 24 hour normoxia. The procedure, abridged:
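A FRET β-lactamase readout of HIF transcription was used. After compound treatment in 0.3% DMSO/media under normoxic conditions, 20 μl of 6× LiveBLAzer-FRET B/G (CCF4-AM) substrate was added. Plates sat 3 hr at room temperature in the dark and were read at 409 Ex/460Em and 409Ex/530Em on a Synergy 2. Inhibition was compared against DMSO vehicle controls, with chetomin as positive control.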

In experiment [3] the target is T1, flag-tagged HIF1α (AA 786-826) / His6-tagged p300 (AA 323-423) complex (Homo sapiens, UniProt Q09472).
T1 construct: His6-tagged p300 (AA 323-423); made in house; host or cells: E. coli (pETDuet vector)
Nature of the experiment: HIF1α p300 displacement assay (TR FRET, +CHAPS). It counts as binding. As to conditions: read-out: IC50 (nM) (HIF1α_p300 Displacement + CHAPS). The procedure, abridged:
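The co-expressed flag-HIF1α (786-826)/His6-p300 (323-423) complex, purified from E. coli with 0.1 mM ZnSO4, was used at 300 nM final with competitor peptides for 1 h at room temperature. Buffer was 150 mM NaCl, 20 mM HEPES pH 7.4, 7.5 mM CHAPS and 1 mM DTT. Anti-Flag-K (0.5 μM) and anti-His-D2 (4 nM) were then added for 2 h, and IC50s were fitted from the TR-FRET ratio.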

For the molecule `CCCC[C@H](NC(=O)[C@H](CCC(=O)O)NC(=O)[C@]1(C)CCCC=CCCCCCC[C@@](C)(NC(=O)[C@H](CCC(=O)O)NC(=O)[C@H](C)NC(=O)[C@@H](NC(=O)[C@H](Cc2ccccc2)NC(C)=O)[C@@H](C)CC)C(=O)N[C@@H](C(C)C)C(=O)N[C@@H](CC(C)C)C(=O)N[C@@H](CCCC)C(=O)N[C@@H](CO)C(=O)N[C@@H](CC(C)C)C(=O)N[C@@H](C(C)C)C(=O)N1)C(=O)N[C@@H](C)C(=O)N[C@@H](CC(C)C)C(=O)N[C@@H](CC(=O)O)C(=O)N[C@@H](C)C(=O)N[C@H](C(N)=O)[C@@H](C)CC` [SP-192] (Ac-FIAE[R8]VL[Nle]SLV[S5]E[Nle]ALDAI-NH2; staple 5-12), the “Viability 1% FBS AVG (MTT V3-24 hr Normoxia) (μM)” value (“Viability 1% FBS AVG” below) in experiment [1] is listed as “++++ (≥30: ++++)”. In experiment [2], the “18 h Avg % max inhibition at top conc (HIF Rptr-24 hrs normoxia) (μM)” value (“18 h Avg % max inhibition at top conc” below) is “++ (≤10 but <25: ++)” and the half-maximal effective concentration (EC50) is greater than 30 µM. The 50% inhibitory concentration (IC50) in experiment [3] was 200 to 400 nM.

In the case of `CCCC[C@H](NC(=O)[C@H](CCC(=O)O)NC(=O)[C@@H](NC(=O)[C@@H](NC(=O)[C@H](CC(C)C)NC(=O)[C@]1(C)CCCC=CCCC[C@](C)(NC(=O)[C@H](CCC(=O)O)NC(=O)[C@H](CC(=O)O)NC(=O)[C@@H](NC(=O)[C@H](Cc2ccccc2)NC(C)=O)[C@@H](C)CC)C(=O)N[C@@H](C(C)C)C(=O)N[C@@H](CC(C)C)C(=O)N[C@@H](C)C(=O)N1)C(C)C)[C@@H](C)CC)C(=O)N[C@@H](C)C(=O)N[C@@H](CC(C)C)C(N)=O` [SP-152] (Ac-FIDE[S5]VLA[S5]LVIE[Nle]AL-NH2; staple 5-9), in experiment [1], the “Viability 1% FBS AVG” value is reported as “++++ (≥30: ++++)”. Also, in experiment [2], the “18 h Avg % max inhibition at top conc” value is given as “+++ (≤25 but <50: +++)” and the EC50 is greater than 30 µM. Besides, the IC50 in experiment [3] was 400 to 700 nM.

On to `CCCC[C@H](NC(=O)[C@H](C)NC(=O)[C@H](CCSC)NC(=O)[C@]1(C)CCCC=CCCC[C@](C)(NC(=O)[C@H](CCSC)NC(=O)[C@H](CC(C)C)NC(=O)[C@@H](NC(=O)[C@H](CCC(=O)O)NC(=O)[C@H](CCC(=O)O)NC(=O)[C@H](CC(=O)O)NC(=O)[C@@H](NC(=O)[C@H](Cc2ccccc2)NC(C)=O)[C@@H](C)CC)C(C)C)C(=O)N[C@@H](CC(C)C)C(=O)N[C@@H](C(C)C)C(=O)N[C@@H]([C@@H](C)CC)C(=O)N1)C(N)=O` [SP-227] (Ac-FIDEEVLM[S5]LVI[S5]MA[Nle]-NH2; staple 9-13), for which, in experiment [1], the “Viability 1% FBS AVG” value is given as “++++ (≥30: ++++)”. Further, in experiment [2], the “18 h Avg % max inhibition at top conc” value is “++ (≤10 but <25: ++)” and the EC50 is greater than 30 µM. Besides, the IC50 in experiment [3] is greater than 700 nM.

For `CCCC[C@H](NC(=O)[C@H](Cc1ccccc1)NC(=O)[C@@H](NC(=O)[C@H](CCC(N)=O)NC(=O)[C@H](CCC(N)=O)NC(=O)[C@H](CC(N)=O)NC(=O)[C@@H](NC(=O)[C@H](Cc1ccccc1)NC(C)=O)[C@@H](C)CC)C(C)C)C(=O)N[C@@]1(C)CCCC=CCCC[C@@](C)(C(=O)N[C@@H](CCCC)C(=O)N[C@@H](C)C(=O)N[C@@H](CC(C)C)C(=O)N[C@@H](CC(C)C)C(N)=O)NC(=O)[C@H]([C@@H](C)CC)NC(=O)[C@H](C(C)C)NC(=O)[C@H](CC(C)C)NC1=O` [SP-248] (Ac-FINQQVF[Nle][S5]LVI[S5][Nle]ALL-NH2; staple 9-13), the “Viability 1% FBS AVG” value in experiment [1] is “++++ (≥30: ++++)”. Further, in experiment [2], the “18 h Avg % max inhibition at top conc” value was “+++ (≤25 but <50: +++)” and the EC50 was greater than 30 µM. For the same molecule, the half-inhibitory concentration (IC50) in experiment [3] is greater than 700 nM.

Consider `CC[C@H](C)[C@H](NC(=O)[C@H](Cc1ccccc1)NC(C)=O)C(=O)N[C@@H](CC(=O)O)C(=O)N[C@@H](CCC(=O)O)C(=O)N[C@@H](CCC(=O)O)C(=O)N[C@H](C(=O)N[C@@H](CC(C)C)C(=O)N[C@@H](CCSC)C(=O)N[C@@]1(C)CCCC=CCCC[C@@](C)(C(=O)N[C@@H](CCSC)C(=O)N[C@@H](C)C(=O)N[C@@H](Cc2ccccc2)C(N)=O)NC(=O)[C@H]([C@@H](C)CC)NC(=O)[C@H](C(C)C)NC(=O)[C@H](CC(C)C)NC1=O)C(C)C` [SP-226] (Ac-FIDEEVLM[S5]LVI[S5]MAF-NH2; staple 9-13), for which the “Viability 1% FBS AVG” value in experiment [1] was “++++ (≥30: ++++)”. Besides, in experiment [2], the “18 h Avg % max inhibition at top conc” value was “++ (≤10 but <25: ++)” and the EC50 is greater than 30 µM. Moreover, in experiment [3], the IC50 lay in the range of 400 to 700 nM.

For the molecule `CCCC[C@H](NC(=O)[C@H](CCC(=O)O)NC(=O)[C@]1(C)CCCC=CCCCCCC[C@@](C)(NC(=O)[C@H](CCC(=O)O)NC(=O)[C@H](CC(=O)O)NC(=O)[C@@H](NC(=O)[C@H](CC(N)=O)NC(=O)[C@@H](NC(=O)[C@H](CCC(N)=O)NC(=O)[C@H](CC(=O)O)NC(=O)[C@H](CC(C)C)NC(=O)[C@H](C)NC(=O)[C@H](CCCNC(=N)N)NC(=O)[C@H](CC(C)C)NC(=O)[C@H](CC(C)C)NC(=O)[C@H](CCC(=O)O)NC(=O)[C@H](CCC(=O)O)NC(=O)CNC(=O)[C@H](CCC(N)=O)NC(=O)[C@H](CC(C)C)NC(=O)[C@H](CC(C)C)NC(C)=O)C(C)C)[C@@H](C)CC)C(=O)N[C@@H](C(C)C)C(=O)N[C@@H](CC(C)C)C(=O)N[C@@H](CCCC)C(=O)N[C@@H](CO)C(=O)N[C@@H](CC(C)C)C(=O)N[C@@H](C(C)C)C(=O)N1)C(N)=O` [SP-336] (Ac-LLQGEELLRALDQVNIDE[R8]VL[Nle]SLV[S5]E[Nle]-NH2; staple 19-26), the “Viability 1% FBS AVG” value in experiment [1] is recorded as “++++ (≥30: ++++)”. In experiment [2], the “18 h Avg % max inhibition at top conc” value was “+ (<10: +)” and the EC50 was greater than 30 µM. For the same molecule, the IC50 in experiment [3] was greater than 700 nM.

Turning to `CCCC[C@H](NC(=O)[C@H](CCC(=O)O)NC(=O)[C@]1(C)CCCC=CCCCCCC[C@@](C)(NC(=O)[C@H](CCC(=O)O)NC(=O)[C@H](CC(=O)O)NC(=O)[C@@H](NC(=O)[C@H](CC(N)=O)NC(=O)[C@@H](NC(=O)[C@]2(C)CCCC=CCCCCCC[C@@](C)(NC(=O)[C@H](CCC(=O)O)NC(C)=O)C(=O)N[C@@H](CC(C)C)C(=O)N[C@@H](CC(C)C)C(=O)N[C@@H](CCCNC(=N)N)C(=O)N[C@@H](C)C(=O)N[C@@H](CC(C)C)C(=O)N[C@@H](CC(=O)O)C(=O)N2)C(C)C)[C@@H](C)CC)C(=O)N[C@@H](C(C)C)C(=O)N[C@@H](CC(C)C)C(=O)N[C@@H](CCCC)C(=O)N[C@@H](CO)C(=O)N[C@@H](CC(C)C)C(=O)N[C@@H](C(C)C)C(=O)N1)C(N)=O` [SP-358] (Ac-E[R8]LLRALD[S5]VNIDE[R8]VL[Nle]SLV[S5]E[Nle]-NH2; staple 2-9, 15-22), the “Viability 1% FBS AVG” value in experiment [1] is recorded as “++++ (≥30: ++++)”. In experiment [2], the “18 h Avg % max inhibition at top conc” value is on record as “+ (<10: +)” and the EC50 is greater than 30 µM. Further, in experiment [3], the half-maximal inhibitory concentration (IC50) was 200 to 400 nM.

As for `CC[C@H](C)[C@H](NC(=O)[C@H](CCCNC(=N)N)NC(=O)[C@H](CC(=O)O)NC(=O)[C@H](CC(C)C)NC(=O)[C@H](C)NC(=O)[C@H](CCSC)NC(=O)[C@]1(C)CCCC=CCCC[C@](C)(NC(=O)[C@H](CCSC)NC(=O)[C@H](Cc2ccccc2)NC(=O)[C@@H](NC(=O)[C@H](CCC(=O)O)NC(=O)[C@H](CCC(=O)O)NC(=O)[C@H](CC(=O)O)NC(=O)[C@@H](NC(=O)[C@H](Cc2ccccc2)NC(C)=O)[C@@H](C)CC)C(C)C)C(=O)N[C@@H](CC(C)C)C(=O)N[C@@H](C(C)C)C(=O)N[C@@H]([C@@H](C)CC)C(=O)N1)C(N)=O` [SP-264] (Ac-FIDEEVFM[S5]LVI[S5]MALDRI-NH2; staple 9-13), the “Viability 1% FBS AVG” value in experiment [1] is on record as “++++ (≥30: ++++)”. Also, in experiment [2], the “18 h Avg % max inhibition at top conc” value was “++ (≤10 but <25: ++)” and the EC50 fell in the range of 15 to 30 µM. For the same molecule, the IC50 in experiment [3] fell in the range of 400 to 700 nM.
